Results taken from ChEMBL document CHEMBL1201862, “PubChem BioAssay data set” (2004).
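Grown in 96-well plates, cells were treated for 48 hours with each compound at five concentrations. Insufficient inhibition: endpoint recorded as highest concentration tested. At the GI50, growth is halved.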 The source made the active and inactive calls. Cut-off read from the data, not from the text of the source: active = GI50 up to about 1.1 µM and inactive = higher.

Tests used:
Test in all cases: growth of human tumour cells (NCI), 48 h
ACHN = tested on: ACHN
PC-3 = tested on: PC-3
OVCAR-4 = tested on: OVCAR-4
T47D = tested on: T47D
SK-MEL-2 = tested on: SK-MEL-2
HOP-62 = tested on: HOP-62
786-0 = tested on: 786-0
OVCAR-3 = tested on: OVCAR-3
MDA-N = tested on: MDA-N
MDA-MB-435 = tested on: MDA-MB-435
CAKI-1 = tested on: CAKI-1
NCI/ADR-RES = tested on: NCI/ADR-RES
UACC-62 = tested on: UACC-62
RPMI-8226 = tested on: RPMI-8226
COLO 205 = tested on: COLO 205
SW-620 = tested on: SW-620
Hs-578T = tested on: Hs-578T
SK-OV-3 = tested on: SK-OV-3
CCRF-CEM = tested on: CCRF-CEM
SF-539 = tested on: SF-539

SMILES	GI50 (ACHN)	GI50 (PC-3)	GI50 (OVCAR-4)	GI50 (T47D)	GI50 (SK-MEL-2)	GI50 (HOP-62)	GI50 (786-0)	GI50 (OVCAR-3)	GI50 (MDA-N)	GI50 (MDA-MB-435)	GI50 (CAKI-1)	GI50 (NCI/ADR-RES)	GI50 (UACC-62)	GI50 (RPMI-8226)	GI50 (COLO 205)	GI50 (SW-620)	GI50 (Hs-578T)	GI50 (SK-OV-3)	GI50 (CCRF-CEM)	GI50 (SF-539)
CCC1c2[nH]c3ccccc3c2C[C@H]2C(=O)NC(Cc3c[nH]c4ccccc34)C(=O)N12 (stereo partly specified)	29.4 µM (inactive)	18.7 µM (inactive)	29.9 µM (inactive)	26.4 µM (inactive)	20 µM (inactive)	24 µM (inactive)	23.4 µM (inactive)	18.2 µM (inactive)	24.2 µM (inactive)	19.7 µM (inactive)	28.8 µM (inactive)	27.9 µM (inactive)	15.5 µM (inactive)	19.4 µM (inactive)	18.8 µM (inactive)	38.5 µM (inactive)	22.6 µM (inactive)	34 µM (inactive)		
NCCCC(N)C(=O)O (stereo unspecified)	> 100 µM (inactive)	> 100 µM (inactive)	> 100 µM (inactive)	> 100 µM (inactive)	> 100 µM (inactive)	> 100 µM (inactive)	> 100 µM (inactive)	> 100 µM (inactive)	> 100 µM (inactive)	> 100 µM (inactive)	> 100 µM (inactive)	> 100 µM (inactive)	> 100 µM (inactive)	> 100 µM (inactive)	> 100 µM (inactive)	> 100 µM (inactive)	> 100 µM (inactive)	> 100 µM (inactive)	> 100 µM (inactive)	
COC(=O)C1CC(C=[N+](C)C)=C(SC)N1C(=O)OCc1ccccc1 (stereo unspecified)	> 100 µM (inactive)	> 100 µM (inactive)	> 100 µM (inactive)	> 100 µM (inactive)	> 100 µM (inactive)	> 100 µM (inactive)	> 100 µM (inactive)	> 100 µM (inactive)	> 100 µM (inactive)	> 100 µM (inactive)	> 100 µM (inactive)	> 100 µM (inactive)	> 100 µM (inactive)	> 100 µM (inactive)	> 100 µM (inactive)	> 100 µM (inactive)	> 100 µM (inactive)	> 100 µM (inactive)		
COc1cc(COC(=O)N(CC(=O)O)c2ccccc2)c([N+](=O)[O-])cc1OC	> 100 µM (inactive)	> 100 µM (inactive)		> 100 µM (inactive)		> 100 µM (inactive)	> 100 µM (inactive)	> 100 µM (inactive)	> 100 µM (inactive)	> 100 µM (inactive)		> 100 µM (inactive)	> 100 µM (inactive)	> 100 µM (inactive)	> 100 µM (inactive)	> 100 µM (inactive)	> 100 µM (inactive)	> 100 µM (inactive)	> 100 µM (inactive)	> 100 µM (inactive)
CC(C(O)c1ccccc1)N(C)/N=N/c1nc2c([nH]1)c(=O)n(C)c(=O)n2C (stereo unspecified)	36.6 µM (inactive)	95.3 µM (inactive)	> 100 µM (inactive)	85.5 µM (inactive)	> 100 µM (inactive)	> 100 µM (inactive)	74.1 µM (inactive)	> 100 µM (inactive)	44.8 µM (inactive)	75.3 µM (inactive)	58.6 µM (inactive)	> 100 µM (inactive)	> 100 µM (inactive)	48.9 µM (inactive)	41.4 µM (inactive)	> 100 µM (inactive)	> 100 µM (inactive)	> 100 µM (inactive)	47.2 µM (inactive)	
C=C1C(=O)O[C@H]2/C=C(/C)C3=CC(=O)[C@@](C)(C[C@@H](OC(=O)/C(C)=C\C)C12)O3 (stereo partly specified)	0.232 µM (active)	2.48 µM (inactive)	3.95 µM (inactive)	0.811 µM (active)	3.02 µM (inactive)	9.4 µM (inactive)	0.426 µM (active)		0.684 µM (active)	1.21 µM (inactive)	0.185 µM (active)		0.891 µM (active)	0.0589 µM (active)	0.284 µM (active)	0.128 µM (active)	6.05 µM (inactive)	12.2 µM (inactive)	0.0953 µM (active)	1.93 µM (inactive)
CN(C)CCNC(=O)c1cnn(C)c1[N+](=O)[O-]	> 100 µM (inactive)	36.1 µM (inactive)	76.7 µM (inactive)	> 100 µM (inactive)	> 100 µM (inactive)	> 100 µM (inactive)	> 100 µM (inactive)	24.5 µM (inactive)	41.6 µM (inactive)	> 100 µM (inactive)	> 100 µM (inactive)		52.4 µM (inactive)	> 100 µM (inactive)	21.6 µM (inactive)	79.6 µM (inactive)	> 100 µM (inactive)	> 100 µM (inactive)	> 100 µM (inactive)	> 100 µM (inactive)
O=C1NC(=O)/C(=C/c2ccc(S(=O)(=O)N/N=C/c3ccc(Cl)cc3)cc2)N1	> 100 µM (inactive)	> 100 µM (inactive)	> 100 µM (inactive)	> 100 µM (inactive)	> 100 µM (inactive)	> 100 µM (inactive)	> 100 µM (inactive)	65.9 µM (inactive)	> 100 µM (inactive)	> 100 µM (inactive)	> 100 µM (inactive)	> 100 µM (inactive)	> 100 µM (inactive)	> 100 µM (inactive)	> 100 µM (inactive)	> 100 µM (inactive)	> 100 µM (inactive)	> 100 µM (inactive)	> 100 µM (inactive)	
CN1CC=C(C#CC(C)(C)O)CC1	> 37.5 µM (inactive)	> 37.5 µM (inactive)	> 37.5 µM (inactive)	> 37.5 µM (inactive)	> 37.5 µM (inactive)	> 37.5 µM (inactive)	> 37.5 µM (inactive)	> 37.5 µM (inactive)	> 37.5 µM (inactive)	> 37.5 µM (inactive)	> 37.5 µM (inactive)	> 37.5 µM (inactive)	> 37.5 µM (inactive)	> 37.5 µM (inactive)	> 37.5 µM (inactive)	> 37.5 µM (inactive)	> 37.5 µM (inactive)	> 37.5 µM (inactive)	> 37.5 µM (inactive)	
C=CCCCC1CCCNC1=O (stereo unspecified)	> 100 µM (inactive)	> 100 µM (inactive)	> 100 µM (inactive)	> 100 µM (inactive)	> 100 µM (inactive)	> 100 µM (inactive)	> 100 µM (inactive)	> 100 µM (inactive)	58.5 µM (inactive)	> 100 µM (inactive)	> 100 µM (inactive)		> 100 µM (inactive)	> 100 µM (inactive)		> 100 µM (inactive)	> 100 µM (inactive)	> 100 µM (inactive)		> 100 µM (inactive)
CC1OC1P(=O)(O)O (stereo unspecified)	> 100 µM (inactive)	> 100 µM (inactive)	> 100 µM (inactive)	> 100 µM (inactive)	> 100 µM (inactive)	> 100 µM (inactive)	> 100 µM (inactive)	> 100 µM (inactive)	> 100 µM (inactive)	> 100 µM (inactive)	> 100 µM (inactive)		> 100 µM (inactive)	28 µM (inactive)	> 100 µM (inactive)	> 100 µM (inactive)	> 100 µM (inactive)	> 100 µM (inactive)	27.5 µM (inactive)	
